Test results from patent US20100099741A1, “Molecular Targets for Treatment of Learning and Memory Dysfunction” (priority 2008, published 2010).

Key:
CREB [1] = assay: Western blot of CREB activity (Ser133 phosphorylation) in primary neurons after neurotransmitter ligands, forskolin or H-89; type: cell-based, rat
From the text: With the primary neuronal cultures, we tested the ability of the constructed Boolean network to correctly predict the output activity, following an increase in the concentration of each input molecules. According to the logic equations of the CREB network (1), which provide the on/off state of CREB in response to the on/off states of input neurotransmitters (1), serotonin is the only input activates CREB. To verify this prediction experimentally, we treated primary neurons with equal micromolar concentrations (10 μM) of serotonin, glutamate, dopamine, GABA, and adenosine for 15 minutes and measured the activity of CREB by monitoring Ser133 phosphorylation (14). Receptors of these neurotransmitters are expressed in the primary cortical culture and this concentration is used in the literature to activate these receptors (17-22).
We also tried to verify the biological relevance of the stuck-at-1 and stuck-at-0 fault models used in Abdi et al (1). We tested the effect of serotonin on the activity of CREB when PKA, a highly vulnerable molecule in this network, is either activated (stuck-at-1) or inhibited (stuck-at-0), by forskolin or H-89, respectively. When PKA is stuck-at-1 or 0, the model predicts that serotonin should no longer activate CREB (1). To verify this experimentally, we treated primary neurons with serotonin in the presence or absence of either forskolin or H-89 (FIG. 1E). […] Thus, when the highly vulnerable molecule PKA is stuck-at-1, the network output is not correctly regulated by the input. […] Immunofluorescent analysis of CREB phosphorylation in primary neuron cultures exposed to vehicle, forskolin, or serotonin individually, or to serotonin following treatment with forskolin, was consistent with the results obtained by Western blotting for CREB phosphorylation. The cells were triple labeled with antibodies against Ser133 CREB (as a measure of CREB activity), Map-2 (as a marker that specifically labels neurons), and DRAQ-5 (as a nuclear marker that stains the nucleus of neuronal and normeuronal cells in primary culture). […] Consistent with the Western blot data (FIG. 1E), the effect of serotonin on the activity of CREB in neurons is attenuated, when serotonin was added after treatment with forskolin. […]
Protein extraction, and immunoblot analysis. […] Protein concentration was measured by Bio-Rad's protein assay and spectrometry at 595° A. Equal amounts of total protein were loaded on 4-12% gradient Bis-Tris gels, separated using the NuPAGE system (Invitrogen) and transferred onto nitrocellulose membrane. The membrane was probed with primary and secondary antibodies and signals were detected by chemiluminescence followed by autoradiography. […]

CREB [2] = assay: Immunofluorescent analysis of CREB phosphorylation (Ser133) in primary cortical culture; type: cell-based, rat
From the text: FIG. 6. Immunofluorescent analysis of primary cortical culture following treatment with vehicle, forskolin, serotonin, or serotonin and forskolin. Red represents the phosphorylated CREB (Ser^133) as a measure of CREB activity. Green represents the Map-2 staining as a specific neuronal marker and blue represent DRAQ-5 nuclear staining of all the cells in the primary culture (both neuronal and glial cells). Images were captured with the same confocal parameters for the four different treatment conditions.
We also tried to verify the biological relevance of the stuck-at-1 and stuck-at-0 fault models used in Abdi et al (1). We tested the effect of serotonin on the activity of CREB when PKA, a highly vulnerable molecule in this network, is either activated (stuck-at-1) or inhibited (stuck-at-0), by forskolin or H-89, respectively. When PKA is stuck-at-1 or 0, the model predicts that serotonin should no longer activate CREB (1). To verify this experimentally, we treated primary neurons with serotonin in the presence or absence of either forskolin or H-89 (FIG. 1E). […] Thus, when the highly vulnerable molecule PKA is stuck-at-1, the network output is not correctly regulated by the input. […]

CREB [3] = settings: previous studies (reference 18); cited from earlier work
CREB [4] = assay: Western blot of endogenous CREB Ser133 phosphorylation and total CREB protein in primary cortical neurons after P/Q-type calcium channel or Gαi agonist/antagonist treatment; type: cell-based, rat
Description: We altered the activity or abundance of endogenous L AND/OR P/Q-type calcium channels and Gαi in primary cortical neurons from rats and then assayed for the changes in endogenous CREB activity or abundance (see Methods). We used primary neuronal culture as a model system because it has the most similar CREB signaling network to the in vivo signaling networks of the mammalian brain.
Primary cortical culture. Primary cortical cultures were prepared from brains of embryonic day 17 to 18 Sprague-Dawley rats (Charles River). After trituration of cortical sections with a glass pipette, 2 to 4×10^5 neurons were plated on a coverslip (diameter: 12 mm) precoated with poly d-lysine (BD Biocoat). For biochemical analysis, primary cortical cells were plated in 35 mm dishes precoated with poly d-lysine (˜3×10^6 neurons/dish). Neurons were grown in NEUROBASAL Medium supplemented with 0.5 mM L-glutamine, B27 (2%), and N2 (1%) supplements.
Protein extraction, and immunoblot analysis. Primary neurons were cultured as described. Cells were homogenized in ice cold lysate buffer (0.25 M Tris, pH 7.5) containing protease inhibitors (Protease Inhibitor Cocktail tablets, Boehringer Mannheim) and phosphatase inhibitors (Phosphatase Inhibitor Cocktails I & II, Sigma) and lysed through three cycles of freezing (in liquid nitrogen) and thawing (in 37° C. water bath). Protein concentration was measured by Bio-Rad's protein assay and spectrometry at 595° A. Equal amounts of total protein were loaded on 4-12% gradient Bis-Tris gels, separated using the NuPAGE system (Invitrogen) and transferred onto nitrocellulose membrane. The membrane was probed with primary and secondary antibodies and signals were detected by chemiluminescence followed by autoradiography. The following antibodies were used: anti-CREB antibody (Cell Signaling, 1:1000), anti-phospho Ser^133 CREB antibody (Cell Signaling, 1:1000), anti P/Q type calcium channel antibody (Chemicon, 1:1000), and anti-actin antibody (Sigma, 1:1000).
Analysis of CREB regulation by P/Q-type calcium channels or Gαi. Primary cortical neurons were cultured as described. We followed the methods of Dolmetsch et al. (13) to analyze the effect of calcium channel blockers on CREB activity. We characterized the signaling properties of the endogenous P/Q-type calcium channels by monitoring the endogenous activity and total protein levels of CREB. In order to minimize the effect of other elements of calcium or G protein signaling following neuronal depolarization, all experiments were performed without depolarizing the neurons. Previous time-course studies have shown that short-term Ser^133 phosphorylation of CREB are transient events and prolonged Ser^133 phoaphorylation (more than 40 minutes) is required for transcriptional activity (13, 14, 15). Therefore, in these experiments we analyzed the endogenous Ser^133 phosphorylation and total CREB protein abundance following at least 2 hours treatment with agonist or antagonists of P/Q-type calcium channels and 2 hours treatment with agonist or antagonist of Gαi, ω-Agatoxin IVA (Calbiochem), pertussis toxin (Sigma), and Mas-7 (Calbiochem) were dissolved in the appropriate vehicle and added to the medium. Following the treatment, cortical neurons were harvested, lysed, and subjected to Western blot analysis as described.

[5] = 2 hours treatment, pertussis toxin approximately 0.1 or 0.2 μg/ml, MAS-7 approximately 5 or 10 μM
[6] = long-term (12 h) treatment, approximately 1 μM, vs vehicle
[7] = short-term (2.5 h) treatment, approximately 1 μM, vs vehicle

## O=S(=O)(NCCNC/C=C/c1ccc(Br)cc1)c1cccc2cnccc12 [H-89]
CREB [1]; about 10 μM H-89 30 minutes followed by 15 minutes about 10 μM serotonin
  serotonin-stimulated activity of CREB under inhibition of PKA: prevents serotonin from stimulating the activity of CREB

## NCCc1c[nH]c2ccc(O)cc12 [serotonin]
CREB [2]; primary cortical culture, triple labeled with phospho-CREB, Map-2, DRAQ-5
  activity of CREB (phospho-Ser133 staining) in neuronal and non-neuronal cells: only increased the activity of CREB in the neurons
CREB [2]; serotonin added after treatment with forskolin
  effect of serotonin on the activity of CREB in neurons when added after forskolin: attenuated
CREB [3]
  Ser133 CREB phosphorylation: can induce
CREB [1]; 10 μM for 15 minutes, primary neurons, vs vehicle
  activity of CREB (Ser133 phosphorylation): most robust effect
CREB [1]; about 10 μM forskolin 30 minutes followed by 15 minutes about 10 μM serotonin
  activity of CREB on serotonin treatment following activation of PKA by forskolin, compared to serotonin only: did not affect the activity of CREB
CREB [1]; about 10 μM, forskolin 30 minutes, serotonin 15 minutes, primary neurons
  activity of CREB, individual treatments: activate CREB

## pertussis toxin
CREB [4]; [5]
  Ser133 phosphorylation of CREB: increase
  abundance of CREB: increase

## ω-Agatoxin IVA
CREB [4]; [6]
  abundance of CREB: decreased
  phosphorylation of CREB at Ser133: decreased
CREB [4]; [7]
  phosphorylation of CREB at Ser133: increased
  total abundance of CREB: without changing
